Here are results for 13 molecules from patent US20240376121A1, “COMPOUNDS AND USES THEREOF” (Foghorn Therapeutics Inc., priority 2021, published 2024).

One experiment deals with T1, HiBit-BRM fusion protein (Homo sapiens, UniProt P51531).
T1 construct: expressed in transfected cells
Kind of experiment: HiBiT-BRM cell-based degradation assay (Nano-Glo HiBiT Lytic Detection). The settings on record: stable HeLa cell line expressing HiBiT-BRM, 24 h incubation; for BRM HiBit Degradation Maximum (%): top dose 30 μM; for DC50: read-out: BRM HiBit Degradation IC50. Here is the method: (§1) Procedure: A stable HeLa cell line expressing HiBiT-BRM was generated. On day 0, 5000 cells were seeded in 40 μL of media into each well of 384-well cell culture plates. On day 1, cells were treated with 120 nL DMSO or 120 nL of 3-fold serially DMSO-diluted compounds (10 points in duplicate with 30 μM as final top dose). Subsequently plates were incubated for 24 h in a standard tissue culture incubator and equilibrated at room temperature for 15 minutes. Nano-Glo HiBiT Lytic Detection System (Promega N3050) reagent was freshly prepared and 20 ul was added to each well. Upon addition of this LgBit-containing reagent, the HiBiT and LgBiT proteins associate to form the luminescent NanoBiT luciferase. The plates were shaken for 10 minutes at room temperature and the bioluminescence read using an EnVision plate reader (PerkinElmer).
(§2) The degradation % was calculated using the following formula: % degradation=100%−100%×(LumSample−LumLC)/(LumHC−LumLC). DMSO treated cells are employed as High Control (HC) and 2 μM of a known BRM/BRG1 degrader standard treated cells are employed as Low Control (LC).

In experiment [1] the target is T2, HiBit-BRG1 fusion protein (Homo sapiens, UniProt P51532).
T2 construct: expressed in transfected cells
The experiment in a line: HiBiT-BRG1 cell-based degradation assay (Nano-Glo HiBiT Lytic Detection). The settings on record: stable HeLa cell line expressing HiBit-BRG1 and LgBit, 24 h incubation; for Dmax: top dose 30 μM, read-out: BRG1 HiBit Degradation Maximum (%); for DC50: read-out: BRMG1 HiBit Degradation IC50. Here is the method:
as §1
For measurement of BRG1 degradation, a stable HeLa cell line expressing HiBit-BRG1 and LgBit was generated. The same protocol as above was then followed.
as §2
A general note: HiBiT is a short tag that completes a luciferase, so light tracks the accessible tagged protein.

Structures are written as SMILES.

T1 sequence (P51531 whole entry, the tested form may be a part): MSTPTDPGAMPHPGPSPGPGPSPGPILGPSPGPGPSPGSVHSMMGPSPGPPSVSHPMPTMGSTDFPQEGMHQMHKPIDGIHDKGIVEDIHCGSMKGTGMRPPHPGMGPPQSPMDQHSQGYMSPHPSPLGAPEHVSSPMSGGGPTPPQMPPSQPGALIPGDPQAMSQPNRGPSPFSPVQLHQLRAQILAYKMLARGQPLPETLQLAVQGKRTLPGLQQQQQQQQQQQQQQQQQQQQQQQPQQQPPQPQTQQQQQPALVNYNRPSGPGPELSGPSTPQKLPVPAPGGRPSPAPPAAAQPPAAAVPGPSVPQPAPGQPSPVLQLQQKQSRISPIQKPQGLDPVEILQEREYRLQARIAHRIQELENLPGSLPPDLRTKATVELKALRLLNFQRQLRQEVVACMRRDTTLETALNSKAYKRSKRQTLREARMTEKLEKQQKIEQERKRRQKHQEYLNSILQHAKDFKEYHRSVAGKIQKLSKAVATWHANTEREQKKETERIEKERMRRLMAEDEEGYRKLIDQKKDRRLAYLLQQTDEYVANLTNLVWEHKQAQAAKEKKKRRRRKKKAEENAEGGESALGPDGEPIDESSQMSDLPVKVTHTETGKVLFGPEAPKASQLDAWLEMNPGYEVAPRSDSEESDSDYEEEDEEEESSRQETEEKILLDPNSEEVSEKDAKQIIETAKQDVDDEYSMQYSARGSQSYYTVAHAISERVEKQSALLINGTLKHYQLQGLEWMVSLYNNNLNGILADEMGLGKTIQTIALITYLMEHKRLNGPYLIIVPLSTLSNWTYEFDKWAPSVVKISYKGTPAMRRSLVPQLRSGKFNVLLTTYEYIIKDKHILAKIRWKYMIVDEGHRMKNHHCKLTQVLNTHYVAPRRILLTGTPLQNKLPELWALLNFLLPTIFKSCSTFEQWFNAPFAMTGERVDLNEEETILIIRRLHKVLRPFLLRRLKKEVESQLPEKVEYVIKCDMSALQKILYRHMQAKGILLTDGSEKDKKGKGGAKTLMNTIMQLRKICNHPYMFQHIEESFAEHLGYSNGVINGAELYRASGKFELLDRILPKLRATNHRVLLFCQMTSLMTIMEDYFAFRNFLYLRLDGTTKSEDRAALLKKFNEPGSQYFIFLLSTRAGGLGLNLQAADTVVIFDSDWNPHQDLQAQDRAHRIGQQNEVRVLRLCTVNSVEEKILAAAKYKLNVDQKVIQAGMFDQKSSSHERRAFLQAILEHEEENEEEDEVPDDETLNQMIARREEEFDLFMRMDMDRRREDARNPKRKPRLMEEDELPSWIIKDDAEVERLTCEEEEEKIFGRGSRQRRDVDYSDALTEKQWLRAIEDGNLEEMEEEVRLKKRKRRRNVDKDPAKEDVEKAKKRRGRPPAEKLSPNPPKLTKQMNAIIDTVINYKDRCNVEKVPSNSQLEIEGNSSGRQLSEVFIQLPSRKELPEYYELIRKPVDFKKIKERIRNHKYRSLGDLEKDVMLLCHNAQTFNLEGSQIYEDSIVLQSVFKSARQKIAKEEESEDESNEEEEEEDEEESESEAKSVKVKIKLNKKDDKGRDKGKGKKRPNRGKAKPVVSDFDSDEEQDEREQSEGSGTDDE
T2 sequence (P51532 whole entry, the tested form may be a part): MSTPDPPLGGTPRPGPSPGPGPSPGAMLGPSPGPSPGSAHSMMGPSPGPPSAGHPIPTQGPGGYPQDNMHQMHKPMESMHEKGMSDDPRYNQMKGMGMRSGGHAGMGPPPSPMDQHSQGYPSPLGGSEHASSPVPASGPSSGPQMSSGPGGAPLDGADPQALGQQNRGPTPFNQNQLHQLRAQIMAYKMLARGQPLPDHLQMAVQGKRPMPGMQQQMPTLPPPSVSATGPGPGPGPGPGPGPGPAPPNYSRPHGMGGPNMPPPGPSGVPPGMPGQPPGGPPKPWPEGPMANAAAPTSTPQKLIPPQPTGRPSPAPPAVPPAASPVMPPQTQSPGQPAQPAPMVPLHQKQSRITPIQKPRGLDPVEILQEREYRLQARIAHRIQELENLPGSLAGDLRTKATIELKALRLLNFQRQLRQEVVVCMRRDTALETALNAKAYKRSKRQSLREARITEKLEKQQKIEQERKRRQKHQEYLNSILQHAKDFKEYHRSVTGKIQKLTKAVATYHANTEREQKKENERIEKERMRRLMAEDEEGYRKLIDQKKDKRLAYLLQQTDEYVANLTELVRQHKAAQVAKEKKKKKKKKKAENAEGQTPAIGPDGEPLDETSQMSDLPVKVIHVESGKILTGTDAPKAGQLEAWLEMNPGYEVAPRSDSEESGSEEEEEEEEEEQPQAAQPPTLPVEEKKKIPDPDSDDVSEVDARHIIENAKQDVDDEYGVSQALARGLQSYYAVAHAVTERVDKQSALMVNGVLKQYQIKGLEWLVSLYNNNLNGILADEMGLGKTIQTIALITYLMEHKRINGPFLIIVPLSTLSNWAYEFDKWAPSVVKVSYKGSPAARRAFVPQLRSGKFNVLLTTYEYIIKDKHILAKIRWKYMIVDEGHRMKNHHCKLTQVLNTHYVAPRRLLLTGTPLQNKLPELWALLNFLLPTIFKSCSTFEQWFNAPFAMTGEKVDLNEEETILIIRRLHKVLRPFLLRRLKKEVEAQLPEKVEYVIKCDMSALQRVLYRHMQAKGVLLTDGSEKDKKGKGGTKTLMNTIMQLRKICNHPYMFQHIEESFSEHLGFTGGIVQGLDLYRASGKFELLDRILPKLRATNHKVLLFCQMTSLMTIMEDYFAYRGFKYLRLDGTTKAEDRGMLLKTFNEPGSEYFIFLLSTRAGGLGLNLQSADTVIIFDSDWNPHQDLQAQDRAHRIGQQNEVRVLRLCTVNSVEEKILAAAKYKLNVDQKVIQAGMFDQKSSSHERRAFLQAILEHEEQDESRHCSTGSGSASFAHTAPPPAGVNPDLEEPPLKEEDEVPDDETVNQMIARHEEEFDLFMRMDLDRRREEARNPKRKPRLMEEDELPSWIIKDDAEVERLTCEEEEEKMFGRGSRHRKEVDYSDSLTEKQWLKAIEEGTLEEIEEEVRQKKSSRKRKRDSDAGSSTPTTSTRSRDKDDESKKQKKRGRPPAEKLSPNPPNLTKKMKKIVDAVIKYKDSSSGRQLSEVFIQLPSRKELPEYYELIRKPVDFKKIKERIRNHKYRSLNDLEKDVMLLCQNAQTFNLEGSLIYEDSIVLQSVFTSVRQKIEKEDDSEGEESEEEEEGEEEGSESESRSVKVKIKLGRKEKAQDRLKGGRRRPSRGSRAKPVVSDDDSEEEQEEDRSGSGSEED

For the molecule `Cc1ncsc1-c1ccc([C@H](C)NC(=O)[C@@H]2C[C@@H](O)CN2C(=O)[C@@H](c2cc(OCCN3C[C@H]4C[C@@H](C3)[C@H]4c3sc4nnc(-c5ccccc5O)cc4c3C)no2)C(C)C)cc1` [Compound 62, (2S,4R)-4-hydroxy-1-((R)-2-(3-(2-((1R,5S,6S)-6-(3-(2-hydroxyphenyl)-5-methylthieno[2,3-c]pyridazin-6-yl)-3-azabicyclo[3.1.1]heptan-3-yl)ethoxy)isoxazol-5-yl)-3-methylbutanoyl)-N-((S)-1-(4-(4-methylthiazol-5-yl)phenyl)ethyl)pyrrolidine-2-carboxamide], at HiBit-BRM fusion protein, the “BRM HiBit Degradation Maximum (%)” value is on record as “C (“C” indicates maximum degradation < 50%)” and the DC50 was not below 1000 nM. Also, in experiment [1], the Dmax was less than 50% and the DC50 was not below 1000 nM.
`Cc1ncsc1-c1ccc(CNC(=O)[C@@H]2C[C@@H](O)CN2C(=O)[C@@H](NC(=O)CCCC(=O)N2CCC(c3cc4cc(-c5ccccc5O)nnc4s3)CC2)C(C)(C)C)cc1` [Compound 28]: on HiBit-BRM fusion protein, the “BRM HiBit Degradation Maximum (%)” value is “B (“B” indicates maximum degradation ≥ 50%)” and the DC50 is not below 1000 nM. In addition, in experiment [1], the Dmax is less than 50% and the DC50 was not below 1000 nM.
Regarding `Cc1ncsc1-c1ccc([C@H](C)NC(=O)[C@@H]2C[C@@H](O)CN2C(=O)[C@@H](c2cc(N3CCC(N4CCC(c5sc6nnc(-c7ccccc7O)cc6c5C)CC4)CC3)no2)C(C)C)cc1` [Compound 96, (2S,4R)-4-hydroxy-1-((R)-2-(3-(4-(3-(2-hydroxyphenyl)-5-methylthieno[2,3-c]pyridazin-6-yl)-[1,4'-bipiperidin]-1'-yl)isoxazol-5-yl)-3-methylbutanoyl)-N-((S)-1-(4-(4-methylthiazol-5-yl)phenyl)ethyl)pyrrolidine-2-carboxamide], on HiBit-BRM fusion protein, the “BRM HiBit Degradation Maximum (%)” value is “A (“A” indicates maximum degradation ≥ 75%)” and the DC50 is less than 10 nM. Moreover, in experiment [1], the Dmax is less than 50% and the DC50 was not below 1000 nM.
In the same order, the values of `Cc1ncsc1-c1ccc([C@H](C)NC(=O)[C@@H]2C[C@@H](O)CN2C(=O)[C@@H](NC(=O)[C@H]2CC[C@@H](c3sc4nnc(-c5ccccc5O)cc4c3C)CC2)C(C)(C)C)cc1` [Compound 50, (2S,4R)-4-hydroxy-1-((S)-2-((1s,4R)-4-(3-(2-hydroxyphenyl)-5-methylthieno[2,3-c]pyridazin-6-yl)cyclohexane-1-carboxamido)-3,3-dimethylbutanoyl)-N-((S)-1-(4-(4-methylthiazol-5-yl)phenyl)ethyl)pyrrolidine-2-carboxamide] are “C (“C” indicates maximum degradation < 50%)”, not below 1000 nM, less than 50% and not below 1000 nM.
In the same order, the values of `Cc1ncsc1-c1ccc(CNC(=O)[C@@H]2C[C@@H](O)CN2C(=O)[C@@H](c2cc(N3CCOCC3)no2)C(C)C)c(OCCCN2CCC(c3sc4nnc(-c5ccccc5O)cc4c3C)CC2)c1` (single isomer, unassigned) [Compound 56] are “B (“B” indicates maximum degradation ≥ 50%)”, not below 10 nM, less than 50% and not below 1000 nM.
With `Cc1ncsc1-c1ccc([C@H](C)NC(=O)[C@@H]2C[C@@H](O)CN2C(=O)[C@@H](c2cc(N3CCN(CC(=O)N4CC(c5cc6cc(-c7ccccc7O)nnc6s5)C4)CC3)no2)C(C)C)cc1` [Compound 6, (2S,4R)-4-hydroxy-1-[(2R)-2-{3-[4-(2-{3-[3-(2-hydroxyphenyl)thieno[2,3-c]pyridazin-6-yl]azetidin-1-yl}-2-oxoethyl)piperazin-1-yl]-1,2-oxazol-5-yl}-3-methylbutanoyl]-N-[(1S)-1-[4-(4-methyl-1,3-thiazol-5-yl)phenyl]ethyl]pyrrolidine-2-carboxamide], at HiBit-BRM fusion protein, the “BRM HiBit Degradation Maximum (%)” value was “B (“B” indicates maximum degradation ≥ 50%)” and the DC50 is not below 100 nM. In addition, in experiment [1], the Dmax is less than 50% and the DC50 is not below 1000 nM.
In the same order, the values of `Cc1ncsc1-c1ccc([C@H](C)NC(=O)[C@@H]2C[C@@H](O)CN2C(=O)[C@@H](c2cc(OCCN3C[C@H]4C[C@@H](C3)[C@H]4c3cc4cc(-c5ccccc5O)nnc4s3)no2)C(C)C)cc1` [Compound 74, (2S,4R)-4-hydroxy-1-((R)-2-(3-(2-((1R,5S,6S)-6-(3-(2-hydroxyphenyl)thieno[2,3-c]pyridazin-6-yl)-3-azabicyclo[3.1.1]heptan-3-yl)ethoxy)isoxazol-5-yl)-3-methylbutanoyl)-N-((S)-1-(4-(4-methylthiazol-5-yl)phenyl)ethyl)pyrrolidine-2-carboxamide] are “C (“C” indicates maximum degradation < 50%)”, not below 1000 nM, less than 50% and not below 1000 nM.
As for `Cc1ncsc1-c1ccc([C@H](C)NC(=O)[C@@H]2C[C@@H](O)CN2C(=O)[C@@H](c2cc(N3CCC(CN4CC(c5cc6nnc(-c7ccccc7O)cc6s5)C4)CC3)no2)C(C)C)cc1` [Compound 103, (2S,4R)-4-hydroxy-1-((R)-2-(3-(4-((3-(3-(2-hydroxyphenyl)thieno[3,2-c]pyridazin-6-yl)azetidin-1-yl)methyl)piperidin-1-yl)isoxazol-5-yl)-3-methylbutanoyl)-N-((S)-1-(4-(4-methylthiazol-5-yl)phenyl)ethyl)pyrrolidine-2-carboxamide], at HiBit-BRM fusion protein, the “BRM HiBit Degradation Maximum (%)” value is recorded as “A (“A” indicates maximum degradation ≥ 75%)” and the DC50 was not below 10 nM. Further, in experiment [1], the Dmax is less than 50% and the DC50 was not below 1000 nM.
In the same order, the values of `Cc1ncsc1-c1ccc([C@H](C)NC(=O)[C@@H]2C[C@@H](O)CN2C(=O)[C@@H](c2cc(N3CCC(CN4CCC(c5sc6nnc(-c7ccccc7O)cc6c5C)CC4)CC3)no2)C(C)C)cc1` [Compound 94, (2S,4R)-4-hydroxy-1-((R)-2-(3-(4-((4-(3-(2-hydroxyphenyl)-5-methylthieno[2,3-c]pyridazin-6-yl)piperidin-1-yl)methyl)piperidin-1-yl)isoxazol-5-yl)-3-methylbutanoyl)-N-((S)-1-(4-(4-methylthiazol-5-yl)phenyl)ethyl)pyrrolidine-2-carboxamide] are “A (“A” indicates maximum degradation ≥ 75%)”, less than 10 nM, less than 50% and not below 1000 nM.
In the same order, the values of `Cc1ncsc1-c1ccc([C@H](C)NC(=O)[C@@H]2C[C@@H](O)CN2C(=O)[C@@H](c2cc(N3CCN(C(=O)CN4CC(c5cc6cc(-c7ccccc7O)nnc6s5)C4)CC3)no2)C(C)C)cc1` [Compound 3, (2S,4R)-4-hydroxy-1-[(2R)-2-{3-[4-(2-{3-[3-(2-hydroxyphenyl)thieno[2,3-c]pyridazin-6-yl]azetidin-1-yl}acetyl)piperazin-1-yl]-1,2-oxazol-5-yl}-3-methylbutanoyl]-N-[(1S)-1-[4-(4-methyl-1,3-thiazol-5-yl)phenyl]ethyl]pyrrolidine-2-carboxamide] are “A (“A” indicates maximum degradation ≥ 75%)”, not below 100 nM, less than 50% and not below 1000 nM.
With `Cc1ncsc1-c1ccc([C@H](C)NC(=O)[C@@H]2C[C@@H](O)CN2C(=O)[C@@H](c2cc(OCCN3CC(c4sc5nnc(-c6ccccc6O)cc5c4C)C3)no2)C(C)C)cc1` [Compound 22], on HiBit-BRM fusion protein, the “BRM HiBit Degradation Maximum (%)” value is “A (“A” indicates maximum degradation ≥ 75%)” and the DC50 is not below 10 nM. Besides, in experiment [1], the Dmax was not below 50% and the DC50 was not below 10 nM.
Regarding `Cc1ncsc1-c1ccc([C@H](C)NC(=O)[C@@H]2C[C@@H](O)CN2C(=O)[C@@H](c2cc(OCCN3CC(Cc4c(C)sc5nnc(-c6ccccc6O)cc45)C3)no2)C(C)C)cc1` [Compound 110, (2S,4R)-4-hydroxy-1-((R)-2-(3-(2-(3-((3-(2-hydroxyphenyl)-6-methylthieno[2,3-c]pyridazin-5-yl)methyl)azetidin-1-yl)ethoxy)isoxazol-5-yl)-3-methylbutanoyl)-N-((S)-1-(4-(4-methylthiazol-5-yl)phenyl)ethyl)pyrrolidine-2-carboxamide], on HiBit-BRM fusion protein, the “BRM HiBit Degradation Maximum (%)” value is “B (“B” indicates maximum degradation ≥ 50%)” and the DC50 is not below 1000 nM. For the same molecule, in experiment [1], the Dmax was less than 50% and the DC50 was not below 1000 nM.
As for `Cc1ncsc1-c1ccc([C@H](C)NC(=O)[C@@H]2C[C@@H](O)CN2C(=O)[C@@H](c2cc(OCCN3CCC(c4c(C)sc5nnc(-c6ccccc6O)cc45)CC3)no2)C(C)C)cc1` [Compound 89, (2S,4R)-4-hydroxy-1-((R)-2-(3-(2-(4-(3-(2-hydroxyphenyl)-6-methylthieno[2,3-c]pyridazin-5-yl)piperidin-1-yl)ethoxy)isoxazol-5-yl)-3-methylbutanoyl)-N-((S)-1-(4-(4-methylthiazol-5-yl)phenyl)ethyl)pyrrolidine-2-carboxamide], at HiBit-BRM fusion protein, the “BRM HiBit Degradation Maximum (%)” value is listed as “C (“C” indicates maximum degradation < 50%)” and the DC50 is not below 1000 nM. Further, in experiment [1], the Dmax is less than 50% and the DC50 is not below 1000 nM.
